Key:
[1] = system: olfactory receptors in visceral fat tissue; assay: OligoDNA microarray, visceral fat tissue of HFD mice fed odor components; assay type: in vivo, mouse
Protocol: DNA microarry analysis using RNAs of visceral fat and liver tissue was conducted by GENOCHECK (CO., LTD.). RNA samples were pooled from 10 mice in each experimental group and subjected to microarray experiments in triplicate for the test of reproducibility. NimbleGen Mouse Whole Oligo 12-plex chip used in this experiment was prepared by triplicating 42,576 genes using Mouse Genome Build 8 as database. In NimbleGen mouse Whole Oligo 12-plex chip, 137,090 spots excluded control group gene were spotted by 16 μm×16 μm size in 17.4 mm×13 mm size. 42,576 oligo included 137,145 genes which are known their functions and 5,431 transcripts and EST sequences which are unknown their functions. 10-50 μg of total RNA was added in oligo-dT primer, reverse transcriptase, dNTP, Cy3-dUTP and Cy5-dUTP, and reverse-transcripted according to the kit manufacturer's recommendations. The resultant was purified using cartridge, dried and dissolved in hybridization buffer solution (30 μL). The microarray was placed in hybridization cassette, heated at 95-100° C. for 5 min, mixed independently to each of RNA labeled with Cy3 and Cy5, and hybridized at 45° C. for 18 hrs. The slide was washed twice in solution containing 1×SSC and 0.1% SDS for 5 min, washed in 1×SSC for 5 min and dried to analyze.

[2] = system: obesity and metabolic diseases-related genes in liver tissue; assay: RT-PCR of obesity and metabolic diseases-related genes, liver tissue; assay type: in vivo, mouse; conditions: odor component-supplemented group to the HFD control group
Protocol: (§1) After adding 1 mL of Trizol agent (Invitrogen, USA) per 0.1 g of visceral fat or liver tissues, the mixture was homogenized and centrifuged at 12,000×g for 10 min at 4° C. The supernatant was transferred to a new tube and 200 μl of chloroform was added to the tube, followed by vortexing. The same procedure was repeated twice and then the supernatant was transferred to a new tube, followed by addition of isopropanol and the supernatant at 1:1 ratio. The mixture was vigorously shaken 10 times and then incubated for 10 min at room temperature, followed by centrifugation at 12,000×g for 10 min at 4° C. to remove the supernatant. After adding 1 mL of 70% ethanol to the remaining pellet, it was centrifuged at 7,500×g for 5 min at 4° C. After removing the ethanol, the RNA pellet contained in the tube was dried for 5 min at 4° C. and dissolved in nuclease-free water. The RNA sample concentration was measured at a wavelength of 260 nm and 280 nm using a UV/VIS spectrophotometer (Beckman coulter, DU730) and the integrity of RNA sample was verified by agarose gel electrophoresis. The RNA sample obtained from the visceral fat or liver tissues was trasnscribed using oligo dT primer and reverse transcriptase (GIBCO BRL, Gaithersburg, Md., USA) to synthesize cDNA. The PCR amplification was performed using the cDNA as templates and primers complementary to cDNA [NT] flanking sequence. 1 μl of the amplified products were resolved on agarose gel electrophoresis to verify DNA band.

[3] = system: HSL (hormone sensitive lipase); assay: Western blotting, protein phosphorylation of HSL; assay type: in vivo, mouse; conditions: for HSL phosphorylation, increase (change rate): odor component-supplemented group to the HFD control group
Protocol: (§6) A certain amount of visceral fat or liver tissues in mortar was homogenized with liquid nitrogen and cell lysis buffer. The mixture was transferred to a new tube, followed by vortexing. After centrifugation at 13,000×g for 20 min at 4° C., the middle layer of the tube was obtained and proteins were quantified by Bradford method. 50 μg of protein was electrophorized to SDS polyacrylamide gel, followed by electroblotting to PVDF hyper film. The protein was reacted using an appropriate antibody for the protein and detected by ECL, whereby insulin resistance, adipocyte differentiation, lipid metabolism or energy consumption-related mechanism of phytochemical components was investigated in the protein level.
(§7) In order to verify this, protein phosphorylations of HSL (hormone sensitive lipase), CREB (cAMP-responsive element binding protein) and AKT (v-akt murine thymoma viral oncogene) were evaluated by western blotting analysis.

[4] = system: obesity and metabolic diseases-related genes in visceral fat tissue; assay: RT-PCR of obesity and metabolic diseases-related genes, visceral fat tissue; assay type: in vivo, mouse; conditions: odor component-supplemented group to the HFD control group
Protocol: as §1

[5] = system: olfactory receptors in visceral fat and liver tissues; assay: OligoDNA microarray, visceral fat and liver tissues of HFD mice fed odor components (tissue not separated in text); assay type: in vivo; conditions: supplemented to mouse fed high-fat diet for 10 weeks
Text: (§2) The obesity-inducing control diet used in the test was high-fat diet (HFD: 40% fat calorie, 17 g lard+3% corn oil/100 g diet). Diets supplemented with an odor component had the same composition as HFD, except that each of various types of odor components (indol-3-carbinol, oleuropein, cedryl acetate, α-cedrene and piperine) having anti-obesity efficacy was contained in 0.02-0.05% concentration. Indo)-3-carbinol, oleuropein, cedryl acetate, a-cedrene and piperine were purchased from Sigma-Aldrich.
(§3) After adding Trizol agent to visceral fat or liver tissue, the mixture was homogenized and centrifuged at 12,000×g for 10 min at 4° C. The supernatant was transferred to a new tube to remove fat layer. Then, 200 μl of chloroform was added to the tube, followed by vortexing. The same procedure was repeated twice and then the supernatant was transferred to a new tube, followed by addition of isopropanol and the supernatant at 1:1 ratio. The mixture was vigorously shaken 10 times and then incubated for 10 min at room temperature, followed by centrifugation at 12,000×g for 10 min at 4° C. to remove the supernatant. After adding 1 mL of 70% ethanol to the remaining pellet, it was centrifuged at 7,500×g for 5 min at 4° C. After removing the ethanol, the RNA pellet contained in the tube was dried for 5 min at 4° C. and dissolved in nuclease-free water. The RNA sample concentration was measured at a wavelength of 260 nm and 280 nm using a UV/VIS spectrophotometer (Beckman coulter, DU730) and the integrity of RNA sample was verified by agarose gel electrophoresis.
(§4) DNA microarry analysis using RNAs of visceral fat and liver tissue was conducted by GENOCHECK (CO., LTD.). RNA samples were pooled from 10 mice in each experimental group and subjected to microarray experiments in triplicate for the test of reproducibility. NimbleGen Mouse Whole Oligo 12-plex chip used in this experiment was prepared by triplicating 42,576 genes using Mouse Genome Build 8 as database. In NimbleGen mouse Whole Oligo 12-plex chip, 137,090 spots excluded control group gene were spotted by 16 μm×16 μm size in 17.4 mm×13 mm size. 42,576 oligo included […] genes which are known their functions and 5,431 transcripts and EST sequences which are unknown their functions. 10-50 μg of total RNA was added in oligo-dT primer, reverse transcriptase, dNTP, Cy3-dUTP and Cy5-dUTP, and reverse-transcripted according to the kit manufacturer's recommendations. The resultant was purified using cartridge, dried and dissolved in hybridization buffer solution (30 μL). The microarray was placed in hybridization cassette, heated at 95-100° C. for 5 min, mixed independently to each of RNA labeled with Cy3 and Cy5, and hybridized at 45° C. for 18 hrs. The slide was washed twice in solution containing 1×SSC and 0.1% SDS for 5 min, washed in 1×SSC for 5 min and dried to analyze.
(§5) The profile for olfactory receptors in which the expression was regulated by more than 2-fold change due to intake of odor components at each tissue was shown in Tables 5. As a result, it was determined that various types of odor components having anti-obesity efficacy regulated a plurality of olfactory receptors in peripheral tissues.

[6] = system: olfactory receptors in liver tissue; assay: OligoDNA microarray, liver tissue of HFD mice fed odor components; assay type: in vivo, mouse
Text: as §2, §3, §4, §5

[7] = system: AKT (v-akt murine thymoma viral oncogene); assay: Western blotting, protein phosphorylation of AKT; assay type: in vivo, mouse; conditions: for AKT phosphorylation, increase (change rate): odor component-supplemented group to the HFD control group
Protocol: as §6, §7

[8] = system: CREB (cAMP-responsive element binding protein); assay: Western blotting, protein phosphorylation of CREB; assay type: in vivo, mouse; conditions: for CREB phosphorylation, increase (change rate): odor component-supplemented group to the HFD control group
Protocol: as §6, §7

[9] = supplemented to HFD-fed mouse 10 weeks
[10] = western blotting, compared to the HFD control group

## OCc1c[nH]c2ccccc12 [indol-3-carbinol]
[1]
  expression of olfactory receptor 380: increased
  expression of olfactory receptor 1165: decreased
[1]; [9]
  Olfr380 expression fold change to HFD group: 2.2
  Olfr1165 expression fold change to HFD group: 0.39
  Olfr1462 expression fold change to HFD group: 2.26
[2]
  C/EBPα gene expression, decrease (change rate): 25% decrease
  CPT1 gene expression, increase (change rate): 33% increase^
  FAS gene expression, decrease (change rate): 27% decrease
  IL-6 gene expression, decrease (change rate): 45% decrease
  PPARγ2 gene expression, decrease (change rate): 36% decrease
  TNFα gene expression, decrease (change rate): 33% decrease
  aP2 gene expression, decrease (change rate): 29% decrease
[3]
  HSL phosphorylation, increase (change rate): 31% increase ^a)
[3]; [10]
  phosphorylation of HSL: significantly increased
[4]
  C/EBPα gene expression, decrease (change rate): 11% decrease^a)
  CPT1 gene expression, increase (change rate): 25% increase^
  FAS gene expression, decrease (change rate): 56% decrease
  IL-6 gene expression, decrease (change rate): 76% decrease
  PGC1α gene expression, increase (change rate): 120% increase ^
  PPARγ2 gene expression, decrease (change rate): 20% decrease
  SIRT1 gene expression, increase (change rate): 45% increase^
  TNFα gene expression, decrease (change rate): 23% decrease
  UCP1 gene expression, increase (change rate): 210% increase ^
  UCP3 gene expression, increase (change rate): 72% increase^
  aP2 gene expression, decrease (change rate): 44% decrease
[5]
  expression of olfactory receptor 16 decreased: more than 2 fold change
  expression of olfactory receptor 116 increased: more than 2 fold change
  expression of olfactory receptor 178 increased: more than 2 fold change
  expression of olfactory receptor 196 decreased: more than 2 fold change
  expression of olfactory receptor 259 decreased: more than 2 fold change
  expression of olfactory receptor 290 increased: more than 2 fold change
  expression of olfactory receptor 380 increased: more than 2 fold change
  expression of olfactory receptor 466 decreased: more than 2 fold change
  expression of olfactory receptor 686 decreased: more than 2 fold change
  expression of olfactory receptor 909 increased: more than 2 fold change
  expression of olfactory receptor 972 decreased: more than 2 fold change
  expression of olfactory receptor 1045 decreased: more than 2 fold change
  expression of olfactory receptor 1093 decreased: more than 2 fold change
  expression of olfactory receptor 1153 increased: more than 2 fold change
  expression of olfactory receptor 1165 decreased: more than 2 fold change
  expression of olfactory receptor 1216 decreased: more than 2 fold change
  expression of olfactory receptor 1329 decreased: more than 2 fold change
  expression of olfactory receptor 1337 decreased: more than 2 fold change
  expression of olfactory receptor 1462 increased: more than 2 fold change
[6]
  expression of olfactory receptor 1045: decreased
[6]; [9]
  Olfr290 expression fold change to HFD group: 2.11
  Olfr1045 expression fold change to HFD group: 0.45
[7]
  AKT phosphorylation, increase (change rate): 40% increase
[7]; [10]
  phosphorylation of AKT: significantly increased
[8]
  CREB phosphorylation, increase (change rate): 45% increase
[8]; [10]
  phosphorylation of CREB: significantly increased

## O=C(/C=C/C=C/c1ccc2c(c1)OCO2)N1CCCCC1 [piperine]
[2]
  C/EBPα gene expression, decrease (change rate): 8% decrease
  CPT1 gene expression, increase (change rate): 44% increase^
  FAS gene expression, decrease (change rate): 67% decrease
  IL-6 gene expression, decrease (change rate): 71% decrease
  PPARγ2 gene expression, decrease (change rate): 44% decrease
  TNFα gene expression, decrease (change rate): 60% decrease
  aP2 gene expression, decrease (change rate): 55% decrease
[3]
  HSL phosphorylation, increase (change rate): 45% increase
[4]
  C/EBPα gene expression, decrease (change rate): 35% decrease
  CPT1 gene expression, increase (change rate): 75% increase^
  FAS gene expression, decrease (change rate): 52% decrease
  IL-6 gene expression, decrease (change rate): 83% decrease
  PGC1α gene expression, increase (change rate): 324% increase ^
  PPARγ2 gene expression, decrease (change rate): 30% decrease
  SIRT1 gene expression, increase (change rate): 36% increase^
  TNFα gene expression, decrease (change rate): 75% decrease
  UCP1 gene expression, increase (change rate): 905% increase ^
  UCP3 gene expression, increase (change rate): 75% increase^
  aP2 gene expression, decrease (change rate): 60% decrease
[5]
  expression of olfactory receptor 38 increased: more than 2 fold change
  expression of olfactory receptor 77 decreased: more than 2 fold change
  expression of olfactory receptor 520 increased: more than 2 fold change
  expression of olfactory receptor 878 increased: more than 2 fold change
  expression of olfactory receptor 1462 decreased: more than 2 fold change
[6]; [9]
  Olfr38 expression fold change to HFD group: 3.93
  Olfr77 expression fold change to HFD group: 0.42
  Olfr520 expression fold change to HFD group: 2.24
  Olfr878 expression fold change to HFD group: 5.56
  Olfr1462 expression fold change to HFD group: 0.49
[7]
  AKT phosphorylation, increase (change rate): 47% increase
[8]
  CREB phosphorylation, increase (change rate): 29% increase

Reference: patent publication US10167507B2, “Metabolic diseases-related odorant receptor genes and use thereof” (INDUSTRY-ACADEMIC COOPERATION FOUNDATION, YONSEI UNIVERSITY, priority 2010, dated 2019)
